From US20090202430A1, “COMPOSITION FOR CYTOCOMPATIBLE, INJECTABLE, SELF-GELLING POLYSACCHARIDE SOLUTIONS FOR ENCAPSULATING AND DELIVERING LIVE CELLS OR BIOLOGICALLY ACTIVE FACTORS” (BIO SYNTECH CANADA INC., priority 2002, published 2009) come the findings set out here.

The structures appear in SMILES notation.

One data set concerns cells. Briefly: Viability of cells maintained in cross-linker solution (FIG. 4A). The data set is classed as cell-based. Particulars: cells incubated in 0.3% peroxide for the same time period (up to 72 hours). The protocol:
FIG. 4A illustrates viability of cells maintained in hydroxyethyl cellulose, or glyoxal cross-linker for over an hour;
In FIG. 4A, high viability is maintained after encapsulation in cross-linked chitosan with glyoxal, or hydroxyethyl cellulose-glyoxal. FIG. 4A illustrates that the active hydroxyethyl cellulose-cross linker is cytocompatible. Cells incubated up to 72 hours in active cross-linker remain over 95% viable. Cells incubated in 0.3% peroxide for the same time period are 100% non-viable. After mixing with chitosan and injecting through a syringe with a 26-gauge needle, encapsulated cells in solid gel remain over 95% viable. After mixing with chitosan and pouring into a petri, encapsulated cells in solid gel remain over 95% viable after 1 day of culture.

The test system of a further data set is encapsulated cells. Kind of data set: MTT assay (live cell metabolism) and Hoechst DNA assay (cell proliferation) of cells in cross-linked chitosan gels (FIG. 4B). The settings on record: MTT and Hoechst DNA assays, after encapsulation. In kind it is cell-based. An excerpt: In FIG. 4B, as shown by MTT assay on day 1 encapsulated cells, hydroxyethyl cellulose offers additional protection to cells immediately post-encapsulation.

`OO` [peroxide]: in the data set on cells, the non-viable cells came out at 100%. Turning to `O=CC=O` [glyoxal], in the data set on encapsulated cells, the “viability and proliferation of cells encapsulated in chitosan gel” value was “viable after encapsulation and proliferate in the gel”.
